Results reported in US20180141991A1, “METHODS AND POLYPEPTIDES FOR MODULATION OF IMMUNORESPONSE” (Mackay Medical Foundation The Presbyterian Church In Taiwan …, priority 2015, published 2018).

Tests used:
[1] = system: PD-L1 on monocytes; assay: Surface expression of PD-L1 on primed monocytes, flow cytometry; assay type: cell-based, human; conditions: polypeptide 10 μg/mL, 24 hours, MFI relative to medium control (FIG. 3B)
Experimental: (§1) (A) Monocytes were incubated with rsTLT-1 (10 μg/mL) for 3 days. At the indicated time point, the cells were harvested and the HLA-DR and PD-L1 molecules were analyzed using flow cytometry. […] (B) Monocytes were cultured with different concentrations of rsTLT-1 for 2 days. The cells were then harvested and the HLA-DR and PD-L1 molecules were analyzed using flow cytometry. Surface molecule expression is presented as the mean fluorescence intensity (MFI) relative to each day that the cells were treated with the control medium (dashed line). Values are presented as mean±SEM from 3 independent experiments.
(A) depicts structural characteristics of extracellular domain of TLT-1 and designed TLT-1 polypeptides. […] The cells were then harvested and the PD-L1 molecules were analyzed using flow cytometry. Surface molecule expression is presented as the MFI relative to each day that the cells were treated with the medium control (dashed line).
(§2) White blood cell concentrates from healthy volunteers were obtained from the Taiwan Blood Service Foundation (Taipei, Taiwan). Written informed consent was obtained for participation in the study, which was approved by the Institutional Review Board of the MacKay Memorial Hospital. Human monocytes were isolated as previously described. […]

[2] = system: HLA-DR on monocytes; assay: Surface expression of HLA-DR on primed monocytes, flow cytometry; assay type: cell-based, human; conditions: polypeptide 10 μg/ml, 48 hours of incubation (FIG. 4)
Experimental: as §1
Monocytes were cultured with 10 μg/ml TLT-1 15-63 polypeptide and 10 μg/ml rsTLT-1 for 2 days. The cells were then harvested and the HLA-DR molecules were analyzed using flow cytometry. Surface molecule expression is presented as the MFI relative to each day that the cells were treated with the medium control (dashed line).
as §2, with “described. In brief, peripheral blood mononuclear cells (PBMCs) were isolated using Ficoll-Paque Plus (GE Healthcare) gradient centrifugation.” for “described.”

Substance | PD-L1 surface expression on monocytes [1] | HLA-DR surface expression on monocytes [2]
TLT-1 15-63: GQGIVGSLPEVLQAPVGSSILVQCHYRLQDVKAQKVWCRFLPEGCQPLV (SEQ ID NO: 7; same sequence as SEQ ID NO: 2) (Polypeptide name TLT-1 15-63) | significantly increased | decreased
TLT-1 34-63: ILVQCHYRLQDVKAQKVWCRFLPEGCQPLV (SEQ ID NO: 9; same sequence as SEQ ID NO: 1) (Polypeptide name TLT-1 34-63) | induced PD-L1 expression | 
